From patent US20250114345A1, “COMPOUNDS AND COMPOSITIONS AS CBP/P300 DEGRADERS AND USES THEREOF” (Oncopia Therapeutics, Inc. d/b/a/ SK Life Science Labs, priority 2023, published 2025)

Target: T1, p300 (Homo sapiens, UniProt Q09472)
T1 construct: host or cells: A549 P300 HiBit cells
Assay: P300 degradation, HiBit technology in A549 P300 HiBit cells (2 h)
Type: cell-based
Conditions: 2 hrs post treatment; for Dmax: A549, A549 P300 HiBit cells; for DC50: A549 P300 HiBit cells
In short: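 Degradation potency and Dmax came from luminescence after 10 min room-temperature lysis with HiBit detection buffer. Beforehand, HiBit-tagged A549 lines received serial compound dilutions (10 mM DMSO stocks) at 37 °C, 5% CO2. CBP cells were read at 24 h, p300 cells at 2 h.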

T1 sequence (Q09472 whole entry): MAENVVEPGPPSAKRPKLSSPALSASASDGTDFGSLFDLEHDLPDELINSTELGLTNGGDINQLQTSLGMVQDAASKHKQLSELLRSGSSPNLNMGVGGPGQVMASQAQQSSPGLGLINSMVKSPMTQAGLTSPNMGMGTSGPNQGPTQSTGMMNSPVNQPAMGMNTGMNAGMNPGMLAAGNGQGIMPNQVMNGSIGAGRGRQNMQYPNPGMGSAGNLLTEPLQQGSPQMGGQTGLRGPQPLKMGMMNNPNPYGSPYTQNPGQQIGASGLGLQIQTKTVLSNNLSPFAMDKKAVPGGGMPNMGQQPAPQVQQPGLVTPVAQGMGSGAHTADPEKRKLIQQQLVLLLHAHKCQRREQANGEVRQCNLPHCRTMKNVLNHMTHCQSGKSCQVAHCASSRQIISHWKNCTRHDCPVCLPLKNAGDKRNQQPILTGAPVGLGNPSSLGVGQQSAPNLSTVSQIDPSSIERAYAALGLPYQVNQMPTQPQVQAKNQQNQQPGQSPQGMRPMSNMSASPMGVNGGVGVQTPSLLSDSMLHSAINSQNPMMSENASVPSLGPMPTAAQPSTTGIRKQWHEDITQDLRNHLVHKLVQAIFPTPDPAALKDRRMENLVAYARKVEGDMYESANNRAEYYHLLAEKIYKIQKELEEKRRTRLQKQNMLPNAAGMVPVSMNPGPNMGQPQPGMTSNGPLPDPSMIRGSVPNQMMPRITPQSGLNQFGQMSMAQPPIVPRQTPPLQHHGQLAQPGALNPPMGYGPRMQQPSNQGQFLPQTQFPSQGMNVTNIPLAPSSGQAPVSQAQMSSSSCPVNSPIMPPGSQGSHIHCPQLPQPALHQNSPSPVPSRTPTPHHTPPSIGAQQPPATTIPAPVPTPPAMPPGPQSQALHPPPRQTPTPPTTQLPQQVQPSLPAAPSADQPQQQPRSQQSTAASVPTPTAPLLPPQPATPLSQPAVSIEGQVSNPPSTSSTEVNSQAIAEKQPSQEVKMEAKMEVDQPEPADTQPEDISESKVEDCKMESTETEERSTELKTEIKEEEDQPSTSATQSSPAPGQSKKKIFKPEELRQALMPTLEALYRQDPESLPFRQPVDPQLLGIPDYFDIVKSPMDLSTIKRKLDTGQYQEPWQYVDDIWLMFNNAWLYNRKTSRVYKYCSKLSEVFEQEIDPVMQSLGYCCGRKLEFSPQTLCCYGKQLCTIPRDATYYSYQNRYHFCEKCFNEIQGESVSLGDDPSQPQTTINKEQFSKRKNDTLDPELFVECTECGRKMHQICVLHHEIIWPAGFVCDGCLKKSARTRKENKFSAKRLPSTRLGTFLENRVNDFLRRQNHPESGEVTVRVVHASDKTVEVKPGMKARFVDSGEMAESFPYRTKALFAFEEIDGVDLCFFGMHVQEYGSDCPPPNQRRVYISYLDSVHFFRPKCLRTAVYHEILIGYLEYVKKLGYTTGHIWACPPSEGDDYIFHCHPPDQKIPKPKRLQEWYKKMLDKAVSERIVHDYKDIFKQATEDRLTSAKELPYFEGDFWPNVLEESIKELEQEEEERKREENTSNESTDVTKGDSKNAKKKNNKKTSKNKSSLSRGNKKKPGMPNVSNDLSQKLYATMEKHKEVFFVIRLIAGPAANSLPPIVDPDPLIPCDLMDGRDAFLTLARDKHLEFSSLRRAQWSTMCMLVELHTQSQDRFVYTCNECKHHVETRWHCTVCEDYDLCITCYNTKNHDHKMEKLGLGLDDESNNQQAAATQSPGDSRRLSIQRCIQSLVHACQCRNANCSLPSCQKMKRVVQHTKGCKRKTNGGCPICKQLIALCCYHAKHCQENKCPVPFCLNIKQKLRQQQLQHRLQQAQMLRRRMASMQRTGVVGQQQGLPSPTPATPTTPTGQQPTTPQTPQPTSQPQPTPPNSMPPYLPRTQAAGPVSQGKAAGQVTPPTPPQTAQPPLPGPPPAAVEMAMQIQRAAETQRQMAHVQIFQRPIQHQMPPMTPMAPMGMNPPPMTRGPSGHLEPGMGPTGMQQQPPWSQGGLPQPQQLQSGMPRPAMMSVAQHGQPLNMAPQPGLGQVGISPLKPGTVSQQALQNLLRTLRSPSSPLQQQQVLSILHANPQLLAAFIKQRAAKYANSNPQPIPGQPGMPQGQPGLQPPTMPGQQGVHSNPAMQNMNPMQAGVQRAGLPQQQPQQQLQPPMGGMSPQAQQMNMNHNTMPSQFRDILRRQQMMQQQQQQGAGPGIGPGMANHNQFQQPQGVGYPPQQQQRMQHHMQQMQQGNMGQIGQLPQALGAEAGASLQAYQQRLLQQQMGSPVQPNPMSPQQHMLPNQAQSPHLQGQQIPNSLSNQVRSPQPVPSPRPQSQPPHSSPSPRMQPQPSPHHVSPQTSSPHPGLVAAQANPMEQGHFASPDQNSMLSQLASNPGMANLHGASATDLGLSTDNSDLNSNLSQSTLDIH

CCc1cc(N(C)c2ccc(-c3cnc(C(=O)NCC#Cc4cccc(NC5CCC(=O)NC5=O)c4)c(C)c3)c(C(F)(F)F)c2)c2cc(C)c(=O)n(C)c2c1 (stereo not shown) [Example B14, N-(3-(3-((2,6-Dioxopiperidin-3-yl)amino)phenyl)prop-2-yn-1-yl)-5-(4-((7-ethyl-1,3-dimethyl-2-oxo-1,2-dihydroquinolin-5-yl)(methyl)amino)-2-(trifluoromethyl)phenyl)-3-methylpicolinamide]
Dmax: 60 to 79%
DC50: 10 to 99 nM

CCc1cc(N(C)c2ccc(-c3cnc(C(=O)NCC#Cc4cccc(NC5CCC(=O)NC5=O)c4)c(C)c3)c(C)c2)c2cc(C)c(=O)n(C)c2c1 (stereo not shown) [Example B15, N-(3-(3-((2,6-Dioxopiperidin-3-yl)amino)phenyl)prop-2-yn-1-yl)-5-(4-((7-ethyl-1,3-dimethyl-2-oxo-1,2-dihydroquinolin-5-yl)(methyl)amino)-2-methylphenyl)-3-methylpicolinamide]
Dmax: > 80%
DC50: 10 to 99 nM

CCc1cc(Oc2ccc(-c3cnc(C(=O)NCC#Cc4cccc(NC5CCC(=O)NC5=O)c4)c(C)c3)nc2)c2cc(C)c(=O)n(C)c2c1 (stereo not shown) [Example B17, N-(3-(3-((2,6-Dioxopiperidin-3-yl)amino)phenyl)prop-2-yn-1-yl)-5-((7-ethyl-1,3-dimethyl-2-oxo-1,2-dihydroquinolin-5-yl)oxy)-5′-methyl-[2,3′-bipyridine]-6′-carboxamide]
Dmax: < 20%
DC50: > 1000 nM

CCc1cc(N(C)c2ccc(-c3cnc(C(=O)NCC#Cc4cccc(NC5CCC(=O)NC5=O)c4)c(C)c3)cc2)c2cc(C)c(=O)n(C)c2c1 (stereo not shown) [Example B18, N-(3-(3-((2,6-Dioxopiperidin-3-yl)amino)phenyl)prop-2-yn-1-yl)-5-(4-((7-ethyl-1,3-dimethyl-2-oxo-1,2-dihydroquinolin-5-yl)(methyl)amino)phenyl)-3-methylpicolinamide]
Dmax: > 80%
DC50: 10 to 99 nM

CCc1cc(N(C)c2ccc(-c3cnc(C(=O)NCC#Cc4cccc(NC5CCC(=O)NC5=O)c4)c(C)c3)c(F)c2)c2cc(C)c(=O)n(C)c2c1 (stereo not shown) [Example B19, N-(3-(3-((2,6-Dioxopiperidin-3-yl)amino)phenyl)prop-2-yn-1-yl)-5-(4-((7-ethyl-1,3-dimethyl-2-oxo-1,2-dihydroquinolin-5-yl)(methyl)amino)-2-fluorophenyl)-3-methylpicolinamide]
Dmax: > 80%
DC50: 10 to 99 nM

Cc1cc(-c2cc3c(cc2F)N(c2cccc4c2cc(C)c(=O)n4C)CCO3)cnc1C(=O)NCC#Cc1ccc2occ(C3CCC(=O)NC3=O)c2c1 (stereo not shown) [Example B21, 5-(4-(1,3-dimethyl-2-oxo-1,2-dihydroquinolin-5-yl)-6-fluoro-3,4-dihydro-2H-benzo[b][1,4]oxazin-7-yl)-N-(3-(3-(2,6-dioxopiperidin-3-yl)benzofuran-5-yl)prop-2-yn-1-yl)-3-methylpicolinamide]
Dmax: > 80%
DC50: 1 to 9.9 nM

Cc1cc2c(N3CCCc4cc(-c5ccc(C(=O)NCC#Cc6ccc7occ(C8CCC(=O)NC8=O)c7c6)nc5)c(C(F)F)cc43)cccc2n(C)c1=O (stereo not shown) [Example B22, 5-(7-(difluoromethyl)-1′,3′-dimethyl-2′-oxo-1′,2′,3,4-tetrahydro-2H-[1,5′-biquinolin]-6-yl)-N-(3-(3-(2,6-dioxopiperidin-3-yl)benzofuran-5-yl)prop-2-yn-1-yl)picolinamide]
Dmax: > 80%
DC50: 1 to 9.9 nM

Cc1cc2c(N3CCCc4nc(-c5ccc(C(=O)NCC#Cc6ccc7occ(C8CCC(=O)NC8=O)c7c6)nc5)ncc43)nc(N3CCC(F)CC3)cc2n(C)c1=O (stereo not shown) [Example B27, N-(3-(3-(2,6-dioxopiperidin-3-yl)benzofuran-5-yl)prop-2-yn-1-yl)-5-(5-(7-(4-fluoro-piperidin-1-yl)-1,3-dimethyl-2-oxo-1,2-dihydro-1,6-naphthyridin-5-yl)-5,6,7,8-tetrahydropyrido[3,2-d]pyrimidin-2-yl) picolinamide]
Dmax: 60 to 79%
DC50: 1 to 9.9 nM

Cc1cc2c(N3CCN(C)c4cc(-c5ccc(C(=O)NCC#Cc6ccc7occ(C8CCC(=O)NC8=O)c7c6)nc5)ncc43)cc(C3CCOCC3)cc2n(C)c1=O (stereo not shown) [Example B31, 5-(4-(1,3-dimethyl-2-oxo-7-(tetrahydro-2H-pyran-4-yl)-1,2-dihydroquinolin-5-yl)-1-methyl-1,2,3,4-tetrahydropyrido[3,4-b]pyrazin-7-yl)-N-(3-(3-(2,6-dioxopiperidin-3-yl)benzofuran-5-yl)prop-2-yn-1-yl) picolinamide]
Dmax: > 80%
DC50: < 1 nM

Cc1cc2c(N3CCN(C)c4nc(-c5ccc(C(=O)NCC#Cc6ccc7occ(C8CCC(=O)NC8=O)c7c6)nc5)ncc43)cccc2n(C)c1=O (stereo not shown) [Example B33, 5-(5-(1,3-dimethyl-2-oxo-1,2-dihydroquinolin-5-yl)-8-methyl-5,6,7,8-tetrahydropteridin-2-yl)-N-(3-(3-(2,6-dioxopiperidin-3-yl)benzofuran-5-yl)prop-2-yn-1-yl)picolinamide]
Dmax: > 80%
DC50: 1 to 9.9 nM

Cc1cc2c(N3CCCc4cc(-c5ccc(C(=O)NCC#Cc6cc7c(C8CCC(=O)NC8=O)cccc7o6)nc5)nnc43)cccc2n(C)c1=O (stereo not shown) [Example B34, 5-(8-(1,3-dimethyl-2-oxo-1,2-dihydroquinolin-5-yl)-5,6,7,8-tetrahydropyrido[2,3-c]pyridazin-3-yl)-N-(3-(4-(2,6-dioxopiperidin-3-yl)benzofuran-2-yl)prop-2-yn-1-yl)picolinamide]
Dmax: > 80%
DC50: < 1 nM

Cc1cc2c(N3CCCc4nc(-c5cnc(C(=O)NCC#Cc6cc7c(C8CCC(=O)NC8=O)cccc7o6)c(Cl)c5)ncc43)cccc2n(C)c1=O (stereo not shown) [Example B36, 3-chloro-5-(5-(1,3-dimethyl-2-oxo-1,2-dihydroquinolin-5-yl)-5,6,7,8-tetrahydropyrido [3,2-d]pyrimidin-2-yl)-N-(3-(4-(2,6-dioxo-piperidin-3-yl)benzofuran-2-yl)prop-2-yn-1-yl)picolinamide]
Dmax: > 80%
DC50: 1 to 9.9 nM

Cc1cc(N2CCN(C)c3cc(-c4ccc(C(=O)NCC#Cc5cc6c(C7CCC(=O)NC7=O)cccc6o5)nc4)ncc32)c2cc(C)c(=O)n(C)c2c1 (stereo not shown) [Example B40, N-(3-(4-(2,6-dioxopiperidin-3-yl)benzofuran-2-yl)prop-2-yn-1-yl)-5-(1-methyl-4-(1,3,7-trimethyl-2-oxo-1,2-dihydroquinolin-5-yl)-1,2,3,4-tetrahydropyrido[3,4-b]pyrazin-7-yl) picolinamide]
Dmax: > 80%
DC50: < 1 nM

Cc1cc2c(N3CCOc4cc(-c5ccc(C(=O)NCC#Cc6ccc7occ(C8CCC(=O)NC8=O)c7c6)nc5)ccc43)cc(C3CCOCC3)cc2n(C)c1=O (stereo not shown) [Example B41, 5-(4-(1,3-dimethyl-2-oxo-7-(tetrahydro-2H-pyran-4-yl)-1,2-dihydroquinolin-5-yl)-3,4-dihydro-2H-benzo[b][1,4]oxazin-7-yl)-N-(3-(3-(2,6-dioxopiperidin-3-yl)benzofuran-5-yl)prop-2-yn-1-yl)picolinamide]
Dmax: > 80%
DC50: 1 to 9.9 nM

CCc1cc(N2CCCc3nc(-c4ccc(C(=O)NCC#Cc5ccc6occ(C7CCC(=O)NC7=O)c6c5)nc4)ncc32)c2cc(C)c(=O)n(C)c2c1 (stereo not shown) [Example B43, N-(3-(3-(2,6-dioxopiperidin-3-yl)benzofuran-5-yl)prop-2-yn-1-yl)-5-(5-(7-ethyl-1,3-dimethyl-2-oxo-1,2-dihydroquinolin-5-yl)-5,6,7,8-tetrahydropyrido[3,2-d]pyrimidin-2-yl) picolinamide]
Dmax: > 80%
DC50: 1 to 9.9 nM

Cc1cc2c(N3CCCc4nc(-c5ccc6c(c5)C(=O)N(CC#Cc5ccc7occ(C8CCC(=O)NC8=O)c7c5)C6)ncc43)cc(C3CCOCC3)cc2n(C)c1=O (stereo not shown) [Example B44, 3-(5-(3-(6-(5-(1,3-dimethyl-2-oxo-7-(tetrahydro-2H-pyran-4-yl)-1,2-dihydroquinolin-5-yl)-5,6,7,8-tetrahydropyrido[3,2-d]pyrimidin-2-yl)-1-oxoisoindolin-2-yl)prop-1-yn-1-yl)benzofuran-3-yl)piperidine-2,6-dione]
Dmax: 20 to 39%
DC50: 1 to 9.9 nM

Cc1cc(-c2ncc3c(n2)CCCN3c2cccc3c2cc(C)c(=O)n3C)cnc1C(=O)NCC#Cc1ccc2occ(C3CCC(=O)NC3=O)c2c1 (stereo not shown) [Example B45, 5-(5-(1,3-dimethyl-2-oxo-1,2-dihydroquinolin-5-yl)-5,6,7,8-tetrahydropyrido[3,2-d]pyrimidin-2-yl)-N-(3-(3-(2,6-dioxopiperidin-3-yl)benzofuran-5-yl)prop-2-yn-1-yl)-3-methylpicolinamide]
Dmax: > 80%
DC50: 1 to 9.9 nM

COc1cc(-c2ncc3c(n2)CCCN3c2cccc3c2cc(C)c(=O)n3C)cnc1C(=O)NCC#Cc1ccc2occ(C3CCC(=O)NC3=O)c2c1 (stereo not shown) [Example B50, 5-(5-(1,3-dimethyl-2-oxo-1,2-dihydroquinolin-5-yl)-5,6,7,8-tetrahydropyrido[3,2-d]pyrimidin-2-yl)-N-(3-(3-(2,6-dioxopiperidin-3-yl)benzofuran-5-yl)prop-2-yn-1-yl)-3-methoxypicolinamide]
Dmax: > 80%
DC50: 1 to 9.9 nM

CCC(=O)N1CCC(c2cc(N3CCCc4nc(-c5ccc(C(=O)NCC#Cc6ccc7occ(C8CCC(=O)NC8=O)c7c6)nc5)ncc43)c3cc(C)c(=O)n(C)c3c2)CC1 (stereo not shown) [Example B52, 5-(5-(1,3-dimethyl-2-oxo-7-(1-propionyl-piperidin-4-yl)-1,2-dihydroquinolin-5-yl)-5,6,7,8-tetrahydropyrido[3,2-d]pyrimidin-2-yl)-N-(3-(3-(2,6-dioxopiperidin-3-yl)benzofuran-5-yl)prop-2-yn-1-yl)picolinamide]
Dmax: > 80%
DC50: < 1 nM

Cc1cc2c(N3CCCc4nc(-c5ccc(C(=O)NCC#Cc6ccc7c(c6)N(C6CCC(=O)NC6=O)CCCC7)nc5)ncc43)cc(C3CCOCC3)cc2n(C)c1=O (stereo not shown) [Example B57, 5-(5-(1,3-dimethyl-2-oxo-7-(tetrahydro-2H-pyran-4-yl)-1,2-dihydroquinolin-5-yl)-5,6,7,8-tetrahydropyrido[3,2-d]pyrimidin-2-yl)-N-(3-(1-(2,6-dioxopiperidin-3-yl)-2,3,4,5-tetrahydro-1H-benzo[b]azepin-8-yl)prop-2-yn-1-yl) picolinamide]
Dmax: < 20%
DC50: > 1000 nM
